Measured values reported in patent US7348305B2, “Inhibitor of cardiac tachyarrhythmias” (Department of Veterans Affairs, Rehabilitation, priority 2003, dated 2008).

Assays:
[1] = system: β-adrenergic receptor kinase (βARK); experiment: βARK immunoblot of EBZ tissue 24 hr after LAD ligation (Model 1); assay type: in vivo, dog; details: 24 hr after LAD ligation
Experimental: βARK immunoblots were used to estimate βARK expression (Yu et al., 2000).
Western Blot Analysis: Assessment of βARK content was conducted using standard SDS-PAGE and immunoblot techniques. Samples containing 100 μg of protein from myocardial extracts were electrophoresed using 10% SDS-PAGE and transferred to nitrocellulose membranes. The membrane was incubated with monoclonal anti-βARK (Upstate Biotechnology, Inc, Lake Placid, N.Y.), followed by exposure to peroxidase-linked anti-mouse IgG. Antibody binding was detected by a chemiluminescent method (ECL, Amersham Biosciences Corp, Piscataway, N.J.). Quantification of immunoreactive proteins was performed by densitometric scanning and with Image QuaNT software (Molecular Dynamics).
β-ARK, Proteasome and Ubiquitin Expression Assays: β-ARK, ubiquitinated β-ARK and proteasome in EBZ and RS tissues was determined by Western blot analysis. Samples were adjusted after protein concentration was assayed (BCA, Pierce Chemicals) to provide identical loads. 100 μg protein was combined with equal volume of SDS sample buffer, and electrophoresed on a 10% polyacrylamide gel. The blocked membranes were incubated with mouse anti β-ARK monoclonal antibody (Santa Cruz Biotechnology, Santa Cruz, Calif.) for 1-h at room temperature followed by anti-mouse IgG coupled to horseradish peroxidase and developed using an ECL western blotting kit (Amersham). The bands were scanned, stripped and reprobed with mouse anti-ubiquitin antibody (Santa Cruz Biotechnology, Santa Cruz, Calif.). The membrane was rescanned, stripped a second time and reprobed with rabbit anti-proteasome 20S C2 subunit polyclonal antibody (A.G. Scientific, Inc. CA). A separate control gel was included that was similarly treated, but reprobed with the identical Ab and band quality and density compared to the previous data obtained before stripping. Quantitation of immunoreactive bands was performed by densitometric scanning using ImageQuant software (Molecular Dynamics).

myocardial infarct = experiment: Model 2: 2-hr LAD occlusion/4-hr reperfusion, infarct size; assay type: in vivo, dog
Experimental: Model 2: Acute changes in infarct size. Seventeen 15-22 kg male mongrel dogs were anesthetized and respired as described above. Body temperature was maintained using a temperature-controlled operative table bed and fluid replacement. Two EKG leads (L-II and V-3) and arterial pressure (left femoral) were continuously monitored during the experiment. […] After 4 hours of reperfusion, the heart was removed and rinsed with room-temperature Tyrode's solution. Cannulae were placed into the proximal aorta and into the LAD artery at the site of occlusion for perfusion with Evans blue (0.1%) and TTZ (0.1%), respectively, at equal pressure (80 mmHg). The area at risk of infarction was delineated by its red color (surviving myocardium) or a pale color (infarct) with the remaining heart stained by Evan's blue. The heart was then sliced to provide a 5 mm thick section parallel to the AV groove. After storage overnight in buffered formalin, infarcted tissue, surviving myocardium within the anatomic area at risk of infarction, and left ventricle outside the area at risk of infarction were separated using a scalpel blade. Infarct mass, area at risk of infarction, left ventricular mass, and total heart mass were determined gravimetrically. Anti-TNFα Treatment: A dosage of 2 mg/kg hTNFR:Fc (supplied as etanercept, Amgen, Inc, Thousand Oaks, Calif.) or saline were injected IV into a forepaw vein at 24-hr and again 1-hr prior to LAD ligation. […] This dosage was used after consultation with the pharmaceutical corporate pharmacology section and based on unpublished internal data that this dosage would provide maximal sequestration of tissue and circulating TNFα.

[2] = system: myeloperoxidase (MPO) activity; experiment: Leukocyte infiltration by myeloperoxidase (MPO) activity, Model 2; assay type: in vivo, dog; details: etanercept pretreated
Experimental: Calculated Oxygen Requirement and Leukocyte Infiltration: The animal's oxygen requirement was estimated by calculation of the double product (heart rate x mean arterial pressure). The myocardial activity of myeloperoxidase (MPO), an enzyme occurring virtually exclusively in neutrophils, was determined by using a modification of the method of Bradley (Mullane et al., 1985). Change in absorbance was measured spectrophotometrically in the supernatants of homogenized myocardium. One unit of MPO is defined as the quantity of enzyme hydrolyzing […] of peroxide per minute at 25° C.

[3] = Side effects of IV injection in dogs; assay type: in vivo, dog; details: 2 mg/kg IV into a forepaw vein at 24-hr and 1-hr prior to LAD ligation
Experimental: Anti-TNFα Treatment: A dosage of 2 mg/kg hTNFR:Fc (supplied as etanercept, Amgen, Inc, Thousand Oaks, Calif.) or saline were injected IV into a forepaw vein at 24-hr and again 1-hr prior to LAD ligation. […] This dosage was used after consultation with the pharmaceutical corporate pharmacology section and based on unpublished internal data that this dosage would provide maximal sequestration of tissue and circulating TNFα.

congestive heart failure = details: cited from earlier work
[4] = etanercept pretreated, 2-hr occlusion/4-hr reperfusion

Substance: etanercept
- βARK in EBZ as percentage of unoperated control tissue ([1]; etanercept 2 mg/kg pretreated, immunoblot, n=5, saline 4.3%): 33.8±7.2%
- salvage of βARK in EBZ tissue compared to saline control ([1]; etanercept pretreated): 8 fold
- decrease in infarct size (% area at risk) compared to saline (myocardial infarct; [4]): 61%
- decrease in infarct size (% left ventricular mass) compared to saline (myocardial infarct; [4]): 54%
- infarct size, % left ventricular mass (LV) (myocardial infarct; etanercept pretreated, 2-hr occlusion/4-hr reperfusion, n=8, saline 13±1): 6±1 % LV
- infarct size, % area at risk (AR) (myocardial infarct; etanercept pretreated, 2-hr occlusion/4-hr reperfusion, n=8, saline 38±6): 15±2 % AR
- reduction of infarct size expressed as % left ventricular mass or % area at risk (myocardial infarct; etanercept pretreatment, Model 2, approximate summary): approximately 50%
- leukocyte infiltration, myeloperoxidase ratio of ischemic to normal tissue ([2]; Model 2, n=7, saline 11±2.6): 1.8±0.2
- decrease in leukocyte accumulation within ischemically injured myocardium ([2]; Model 2, versus saline): 9 fold
- side effects of the injection [3]: No side effects
- benefit upon functional status or survival in congestive heart failure (congestive heart failure; human clinical trials (Anker et al., 2002)): no significant benefits
- safety of administration in patients with heart failure (congestive heart failure; human, in vivo): safe
